From PMC2364952, “The Anti-Inflammatory Activity of Boron Derivatives in Rodents” (Metal-Based Drugs, 1995)
pIC50: −log10 of the molar value.

How the values were obtained:
aryl sulphatase = assay: Aryl sulfatase activity, mouse macrophages; format: cell-based, mouse (J774 macrophages); settings: Table 3; read-out: IC50 Aryl Sulfatase, Mouse Macrophage
trypsin [1] = assay: Trypsin proteolytic activity, mouse macrophages; format: cell-based, mouse (J774 macrophages); settings: Table 5; read-out: IC50 Trypsin, Mouse Macrophage
[2] = tested on: acetic acid induced stretch reflex; assay: Local analgesic screen (acetic acid writhing); format: in vivo, CF1 mice; settings: for Mice Writhing Reflex: 8 mg/kg I.P., Table 2; for reduction of the reflex action: mice, acetic acid induced local pain, 8 mg/kg
cathepsin = assay: Cathepsin activity, mouse macrophages; format: cell-based, mouse (J774 macrophages); settings: Table 3; read-out: IC50 Cathepsin, Mouse Macrophage
neutral cathepsin = assay: Cathepsin activity, UMR-106 osteosarcoma cells; format: cell-based; settings: Table 6; read-out: IC50 Neutral Cathepsin, Rat UMR-106 Bone Osteosarcoma
elastase [3] = assay: Elastase activity, mouse macrophages; format: cell-based, mouse (J774 macrophages); settings: Table 5; read-out: IC50 Elastase, Mouse Macrophage
acid phosphatase = assay: Acid phosphatase activity, mouse macrophages; format: cell-based, mouse (J774 macrophages); settings: Table 3; read-out: IC50 Acid Phosphatase, Mouse Macrophage
elastase [4] = assay: Elastase activity, UMR-106 osteosarcoma cells; format: cell-based; settings: Table 6; read-out: IC50 Elastase, Rat UMR-106 Bone Osteosarcoma
trypsin [5] = assay: Trypsin activity, UMR-106 osteosarcoma cells; format: cell-based; settings: Table 6; read-out: IC50 Trypsin, Rat UMR-106 Bone Osteosarcoma
[6] = tested on: adjuvant (M. butyricum) arthritis; assay: Chronic adjuvant arthritic screen; format: in vivo; settings: rats; for Rat Chronic Arthritis: 8 mg/kg/day I.P., Day 3 to Day 21, Table 2
[7] = biological target: prostaglandin cyclooxygenase; assay: Prostaglandin cyclooxygenase activity, macrophages; format: cell-based, mouse (J774 macrophages); settings: Table 7
[8] = tested on: tail flick response to heat; assay: Hot plate tail flick screen; format: in vivo, CF1 male mice; settings: for Mice Tail Flick: 8 mg/kg I.P., hot plate, Table 2; for tail flick assay time: mice, 8 mg/kg
[9] = tested on: carrageenan-induced pleural fluid; assay: Anti-pleurisy screen; format: in vivo, Sprague Dawley male rats; settings: for pleurisy edema in rats: 8 mg/kg; for Rat Pleurisy: rats, 8 mg/kg I.P., 1 h before and 3 h after carrageenan, Table 2;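 as to Rat Pleurisy: Pleural fluid volume as percent of control rats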
[10] = tested on: carrageenan-induced inflammation of paw; assay: Carrageenan-induced paw edema, rats; format: in vivo, Sprague Dawley male rats; settings: for Rat Inflammatory: 8 mg/kg x 2, I.P., Table 2;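 as to Rat Inflammatory: paw weight increase as percent of control rats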
[11] = tested on: prostaglandin cyclooxygenase; assay: Prostaglandin cyclooxygenase activity, Be Sal cells; format: cell-based, human (Be Sal osteofibrolytic cells); settings: Table 7; read-out: IC50 Prostaglandin Cyclooxygenase, Be Sal Osteofibro
[12] = tested on: carrageenan-induced inflammation of hind foot; assay: Carrageenan-induced foot edema, mice; format: in vivo, CF1 male mice; settings: mice; for reduction of induced edema: 8 mg/kg x 2, I.P., carrageenan
[13] = biological target: T1, prostaglandin cyclooxygenase (Bos taurus, UniProt O62664); assay: Prostaglandin synthetase from bovine seminal vesicles; format: biochemical; settings: Table 7; read-out: IC50 Prostaglandin Cyclooxygenase, Beef Seminal Vesicle
T1 construct: purified commercial prostaglandin synthetase from bovine seminal vesicles (Miles Research Products); purchased Miles Research Products; host or cells: bovine seminal vesicles (tissue preparation)
T1 sequence (O62664 25-600): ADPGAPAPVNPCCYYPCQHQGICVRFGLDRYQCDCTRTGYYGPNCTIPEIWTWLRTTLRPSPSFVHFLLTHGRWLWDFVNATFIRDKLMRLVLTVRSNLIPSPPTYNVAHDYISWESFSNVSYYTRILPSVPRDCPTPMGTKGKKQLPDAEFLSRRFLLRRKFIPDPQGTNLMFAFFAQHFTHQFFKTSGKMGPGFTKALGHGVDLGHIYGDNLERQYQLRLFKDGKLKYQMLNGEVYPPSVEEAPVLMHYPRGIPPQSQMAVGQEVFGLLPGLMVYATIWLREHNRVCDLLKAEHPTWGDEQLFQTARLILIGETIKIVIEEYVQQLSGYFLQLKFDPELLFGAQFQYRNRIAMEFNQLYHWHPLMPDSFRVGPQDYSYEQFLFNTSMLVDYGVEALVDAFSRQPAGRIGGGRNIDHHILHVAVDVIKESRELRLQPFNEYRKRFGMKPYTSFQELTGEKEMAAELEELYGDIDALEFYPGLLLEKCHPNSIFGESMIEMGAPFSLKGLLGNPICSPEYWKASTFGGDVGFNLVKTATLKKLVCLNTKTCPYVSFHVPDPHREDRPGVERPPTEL

5'-lipoxygenase [14] = biological target: T2, 5'-lipoxygenase (Mus musculus, UniProt P48999); assay: 5'-Lipoxygenase activity, mouse macrophages; format: cell-based; settings: Table 7; read-out: IC50 5'-Lipoxygenase, Mouse Macrophage
T2 construct: endogenous in cells; host or cells: mouse macrophages (J774A as maintained above)
T2 sequence (P48999 1-674): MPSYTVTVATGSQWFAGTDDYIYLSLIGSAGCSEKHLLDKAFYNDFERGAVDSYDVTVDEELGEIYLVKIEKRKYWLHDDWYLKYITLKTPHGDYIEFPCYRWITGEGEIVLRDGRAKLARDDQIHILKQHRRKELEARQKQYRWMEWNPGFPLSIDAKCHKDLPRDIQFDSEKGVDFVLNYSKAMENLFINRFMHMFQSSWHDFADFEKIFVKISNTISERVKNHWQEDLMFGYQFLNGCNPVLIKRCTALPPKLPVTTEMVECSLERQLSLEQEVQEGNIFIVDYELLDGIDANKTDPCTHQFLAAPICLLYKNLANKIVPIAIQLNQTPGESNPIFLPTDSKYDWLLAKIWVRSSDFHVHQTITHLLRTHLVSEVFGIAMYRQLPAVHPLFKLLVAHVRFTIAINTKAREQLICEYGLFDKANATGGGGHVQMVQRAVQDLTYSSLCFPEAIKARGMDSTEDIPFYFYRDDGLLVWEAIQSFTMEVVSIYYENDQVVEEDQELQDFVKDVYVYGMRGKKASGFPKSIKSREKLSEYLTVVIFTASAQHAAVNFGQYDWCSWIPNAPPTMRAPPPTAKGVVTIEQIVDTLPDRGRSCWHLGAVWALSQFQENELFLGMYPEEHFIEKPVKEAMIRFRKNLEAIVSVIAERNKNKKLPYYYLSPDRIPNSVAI

5'-lipoxygenase [15] = biological target: T3, 5'-lipoxygenase (Homo sapiens, UniProt P09917); assay: 5'-Lipoxygenase activity, human leukocytes; format: cell-based; settings: Table 7
T3 construct: endogenous in cells; host or cells: RMPI 1788 human leukocytes
T3 sequence (P09917 1-674): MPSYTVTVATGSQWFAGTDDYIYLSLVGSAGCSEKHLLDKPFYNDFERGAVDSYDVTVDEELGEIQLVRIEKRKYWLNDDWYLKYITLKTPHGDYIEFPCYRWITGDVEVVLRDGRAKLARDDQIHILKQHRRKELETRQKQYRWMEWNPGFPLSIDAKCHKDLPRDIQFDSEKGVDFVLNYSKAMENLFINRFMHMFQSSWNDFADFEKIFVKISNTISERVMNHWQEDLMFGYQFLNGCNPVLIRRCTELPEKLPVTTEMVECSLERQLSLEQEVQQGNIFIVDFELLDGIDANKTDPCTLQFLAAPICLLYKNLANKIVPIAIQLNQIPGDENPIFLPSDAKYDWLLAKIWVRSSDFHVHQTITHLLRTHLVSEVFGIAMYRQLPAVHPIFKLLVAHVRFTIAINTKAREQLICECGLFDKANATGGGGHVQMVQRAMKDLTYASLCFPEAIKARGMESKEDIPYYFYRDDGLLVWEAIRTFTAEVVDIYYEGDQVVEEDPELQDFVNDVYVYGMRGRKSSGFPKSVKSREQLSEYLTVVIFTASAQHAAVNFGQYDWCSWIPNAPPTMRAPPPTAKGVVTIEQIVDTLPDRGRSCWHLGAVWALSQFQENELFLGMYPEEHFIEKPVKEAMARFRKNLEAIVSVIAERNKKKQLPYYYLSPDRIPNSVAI

SMILES | pIC50 (aryl sulphatase) | pIC50 (trypsin [1]) | Mice Writhing Reflex [2] | reduction of the reflex action [2] | pIC50 (cathepsin) | pIC50 (neutral cathepsin) | pIC50 (elastase [3]) | pIC50 (acid phosphatase) | pIC50 (elastase [4]) | pIC50 (trypsin [5]) | pIC50 [7] | Mice Tail Flick [8] | tail flick assay time [8] | Rat Pleurisy [9] | Rat Inflammatory [10] | pIC50 [11] | also measured
CCCCCCCCCCCCCCCC[N+](C)(C)[BH2-]C#N [Compound 35] | 5.15 | 5.57 | 16 % of control | 80% | 5.30 | 5.20 | 5.56 | 6.48 | 5.04 | 5.14 | – | – | – | – | – | – | –
C[NH2+][BH2-]C(=O)O [Compound 2] | 5.08 | 5.63 | 31 % of control | at least 45% | 5.02 | 5.24 | 5.63 | 6.05 | 5.05 | 5.00 | 5.46 | 147 % of control | increased | 61 % of control | 70 % of control | – | activity in chronic arthritis screen ([6]; 8 mg/kg/day): significantly active; Rat Chronic Arthritis [6]: 53 % of control; pleurisy edema in rats [9]: reduced significantly
C[N+](C)(C)[BH2-]C(=O)NO.Cl [Compound 77] | 5.85 | 5.67 | 41 % of control | at least 45% | 5.29 | – | 5.83 | 5.18 | – | – | 5.11 | 139 % of control | – | – | – | 5.96 | –
O=C(O)[BH2-][NH+]1CCOCC1 [Compound 83] | 5.12 | 5.63 | – | – | 5.75 | 5.27 | 6.02 | 6.80 | 5.09 | 5.00 | – | – | – | – | – | – | reduction of induced edema [12]: at least 30%
C[N+](C)(C)[BH2-]C(C#N)c1ccccc1 (stereo not shown) [Compound 46] | 5.47 | 5.62 | 46 % of control | at least 45% | 5.59 | – | 5.28 | 5.11 | – | – | 5.18 | 191 % of control | increased | – | – | 5.63 | pIC50 [13]: 6.15
CCOC(=O)[BH2-][NH+](C)C [Compound 20] | 5.03 | 5.69 | – | at least 45% | 5.40 | 5.18 | 5.48 | 5.95 | 4.99 | 5.04 | – | – | – | 61 % of control | – | – | reduction of pannus ([6]; 8 mg/kg/day): greater than 75%; Rat Chronic Arthritis [6]: 13 % of control; pleurisy edema in rats [9]: reduced significantly
COC(=O)[BH2-][NH+](C)C [Compound 15] | 5.13 | 5.56 | 12 % of control | 80% | 5.17 | 5.21 | 5.67 | 5.98 | 5.01 | 5.18 | 5.55 | 147 % of control | increased | 86 % of control | 59 % of control | 5.37 | pIC50 [13]: 5.54; pIC50 (5'-lipoxygenase [14]): 5.18; pIC50 (5'-lipoxygenase [15]): 5.27; reduction in induced edema in rats ([10]; 8 mg/kg x 2): at least 40%; anti-inflammatory activity in mouse edema screen ([12]; 8 mg/kg x 2): less active
C[NH+](C)[BH2-]C#N [Compound 33] | 5.04 | 5.61 | 15 % of control | 80% | 5.26 | 5.20 | 5.60 | 5.95 | 5.04 | 5.12 | 5.23 | – | – | – | 61 % of control | – | pIC50 (5'-lipoxygenase [14]): 5.00; pIC50 (5'-lipoxygenase [15]): 5.46
[BH3-][NH2+]C(C)(C)C [Compound 1] | – | 5.68 | 19 % of control | 80% | 5.34 | 5.33 | 6.66 | 5.09 | 5.03 | 5.11 | 5.38 | – | – | – | – | – | –
CC[N+]#C[BH2-][N+](C)(C)C.F[B-](F)(F)F [Compound 74] | 5.22 | 5.74 | 40 % of control | at least 45% | 5.04 | 5.18 | 5.63 | 5.88 | 5.00 | 4.98 | 5.82 | – | – | – | 81 % of control | – | reduction of induced edema [12]: at least 40%
